In one test the test system is MET. Briefly: MET biochemical kinase assay. On the set-up: species or system human; concentration or dose not given beside the values. A digest of the protocol: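 Immunocaptured MET autophosphorylation, read colorimetrically (TMB) via HRP anti-phosphotyrosine antibody. Kinase reaction initiated with buffer containing ATP and divalent metals after compound addition to plate-bound receptor from lysates.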

The next test deals with T1, EGFR (Homo sapiens, UniProt P00533).
T1 construct: Add 7 ug A431 cell lysate per well (EGFR source); endogenous in cells; host or cells: A431
Briefly: EGFR ELISA assay (in vitro kinase activity, EGFR captured from A431 cell lysate). The test is classed as biochemical. Details: concentration or dose not given beside the values. Put shortly: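 EGFR from A431 lysate was captured on anti-EGFR antibody-coated plates and preincubated with compounds for 30 min. Autophosphorylation ran 5 min with 3 uM ATP and 5 mM MnCl2 (final), stopped with 20 mM EDTA. Phosphotyrosine was detected by anti-pTyr ELISA with ABTS/H2O2, read at 410 nm.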
(In general: ELISA stands for enzyme-linked immunosorbent assay.)

Experimental findings from patent EP1247803A2, “Indolinone compounds suitable for modulation of protein kinases” (Sugen, Inc., priority 1996, dated 1998) are described below.

T1 sequence (P00533 25-1210): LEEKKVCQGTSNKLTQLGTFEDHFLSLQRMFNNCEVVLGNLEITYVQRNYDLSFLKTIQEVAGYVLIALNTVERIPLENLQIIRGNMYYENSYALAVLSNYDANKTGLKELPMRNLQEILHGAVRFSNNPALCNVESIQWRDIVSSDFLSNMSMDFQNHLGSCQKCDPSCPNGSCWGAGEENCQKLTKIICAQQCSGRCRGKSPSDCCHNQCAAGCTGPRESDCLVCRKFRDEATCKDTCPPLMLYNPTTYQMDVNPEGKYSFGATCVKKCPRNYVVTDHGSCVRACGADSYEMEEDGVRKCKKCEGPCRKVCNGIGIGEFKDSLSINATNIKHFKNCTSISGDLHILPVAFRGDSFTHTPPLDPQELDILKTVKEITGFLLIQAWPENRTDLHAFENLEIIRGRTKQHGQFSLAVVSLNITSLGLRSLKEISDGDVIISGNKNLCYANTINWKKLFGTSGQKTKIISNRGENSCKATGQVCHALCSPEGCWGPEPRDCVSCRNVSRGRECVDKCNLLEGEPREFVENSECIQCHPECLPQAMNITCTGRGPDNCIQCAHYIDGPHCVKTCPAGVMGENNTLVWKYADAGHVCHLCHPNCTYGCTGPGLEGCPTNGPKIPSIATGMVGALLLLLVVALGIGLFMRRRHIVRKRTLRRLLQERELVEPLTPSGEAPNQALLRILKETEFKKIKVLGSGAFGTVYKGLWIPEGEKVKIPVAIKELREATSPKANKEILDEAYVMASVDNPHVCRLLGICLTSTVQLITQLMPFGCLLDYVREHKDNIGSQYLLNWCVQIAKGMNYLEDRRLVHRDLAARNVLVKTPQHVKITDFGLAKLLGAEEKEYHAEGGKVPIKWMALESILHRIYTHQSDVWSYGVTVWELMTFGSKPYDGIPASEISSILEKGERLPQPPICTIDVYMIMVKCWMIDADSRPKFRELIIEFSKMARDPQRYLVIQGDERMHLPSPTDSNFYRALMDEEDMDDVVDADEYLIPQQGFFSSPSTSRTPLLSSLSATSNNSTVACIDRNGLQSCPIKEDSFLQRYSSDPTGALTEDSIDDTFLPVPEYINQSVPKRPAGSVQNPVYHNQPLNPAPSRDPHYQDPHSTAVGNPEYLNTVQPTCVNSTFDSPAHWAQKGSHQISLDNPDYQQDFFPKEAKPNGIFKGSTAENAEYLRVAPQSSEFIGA

Turning to `Cc1cc(C=C2C(=O)Nc3ccc(S(=O)(=O)Nc4ccc(C(F)(F)F)cc4)cc32)cc(C(C)(C)C)c1O` [10726/E04], in the test on MET, the “Met Kinase % Inhibition” value came out at 85.5%. Further, the “Biochem EGFR %Inhibition” value at EGFR came to 53.0%.

`CCN(CC)c1ccc(C=C2C(=O)Nc3ccc(I)cc32)cc1` [10727/B02]: the “Met Kinase % Inhibition” value in the test on MET was found to be 90.5%. In addition, the “Biochem EGFR %Inhibition” value at EGFR is given as -18.4%.

As to `CNS(=O)(=O)c1ccc2c(c1)C(=Cc1cc(O)c3c(c1O)CCCC3)C(=O)N2` [10726/D07], the “Met Kinase % Inhibition” value with MET is listed as 84.6%. On EGFR, the “Biochem EGFR %Inhibition” value was 18.5%.

As for `Cc1cc(C=C2C(=O)Nc3ccc(CCCl)cc32)cc(C(C)(C)C)c1O` [10726/G04], the “Met Kinase % Inhibition” value in the test on MET worked out at 72.8%. In addition, on EGFR, the “Biochem EGFR %Inhibition” value turned out to be 60.6%.

On to `COc1cccc(C=C2C(=O)Nc3ccc(Br)c(C)c32)c1OC` [10727/C11], for which the “Met Kinase % Inhibition” value in the test with MET was 14.5%. Besides, the “Biochem EGFR %Inhibition” value at EGFR is given as -15.6%.

Regarding `CCN(CC)c1ccc(C=C2C(=O)Nc3ccc(Br)c(C)c32)cc1` [10727/C02], the “Met Kinase % Inhibition” value in the test with MET was 73.8%. In addition, at EGFR, the “Biochem EGFR %Inhibition” value is listed as -28.5%.

With `CCN(CC)c1ccc(C=C2C(=O)Nc3ccc(S(=O)(=O)NC)cc32)cc1` [10727/D02], in the test with MET, the “Met Kinase % Inhibition” value is recorded as 51.6%. For the same molecule, the “Biochem EGFR %Inhibition” value at EGFR is 22.6%.

For `CCc1ccc(C=C2C(=O)Nc3ccc(S(=O)(=O)Nc4ccc(C(F)(F)F)cc4)cc32)s1` [10726/E10], in the test with MET, the “Met Kinase % Inhibition” value turned out to be 41.5%. The “Biochem EGFR %Inhibition” value on EGFR is listed as -9.0%.

`Cc1c(Br)ccc2c1C(=Cc1cc3c(cc1Cl)OCO3)C(=O)N2` [10727/C06]: in the test on MET, the “Met Kinase % Inhibition” value is on record as 45.2%. At EGFR, the “Biochem EGFR %Inhibition” value came out at 5.6%.

`CNS(=O)(=O)c1ccc2c(c1)C(=C1C(=O)Nc3ccc(F)cc31)C(=O)N2` [10726/D08]: the “Met Kinase % Inhibition” value in the test on MET was found to be 39.5%. For the same molecule, the “Biochem EGFR %Inhibition” value on EGFR is listed as -11.4%.

Take `O=C1Nc2c(Br)cc(Br)cc2C1=Cc1c[nH]c2ccccc12` [10717/A06]: in the test with MET, the “Met Kinase % Inhibition” value came to 31.7%. For the same molecule, on EGFR, the “Biochem EGFR %Inhibition” value is given as -7.8%.

For `CCc1ccc(C=C2C(=O)Nc3ccc(CCCl)cc32)s1` [10726/G10], the “Met Kinase % Inhibition” value in the test with MET was found to be 26.8%. At EGFR, the “Biochem EGFR %Inhibition” value was determined as 6.0%.

With `O=C1Nc2c(Br)cc(Br)cc2C1=Cc1cc(O)ccc1O` [10727/A10], the “Met Kinase % Inhibition” value with MET was 95.2%. For the same molecule, the “Biochem EGFR %Inhibition” value on EGFR turned out to be 89.0%.

Take `CCOC(=O)c1[nH]c(C=C2C(=O)Nc3ccc(CCCl)cc32)c(C(=O)OC)c1C` [10726/G03]: in the test on MET, the “Met Kinase % Inhibition” value was 26.8%. Besides, the “Biochem EGFR %Inhibition” value at EGFR is -17.2%.

For `CCN(CC)c1ccc(C=C2C(=O)Nc3c(Br)cc(Br)cc32)cc1` [10727/A02], the “Met Kinase % Inhibition” value in the test with MET came to 52.0%. In addition, the “Biochem EGFR %Inhibition” value at EGFR was determined as 3.2%.

On to `Cc1ccc(C=C2C(=O)Nc3ccc(CCCl)cc32)s1` [10717/G07], for which, in the test with MET, the “Met Kinase % Inhibition” value amounted to 7.5%. On EGFR, the “Biochem EGFR %Inhibition” value is given as 13.1%.

As to `O=C1Nc2ccc(I)cc2C1=Cc1cc2c(cc1Cl)OCO2` [10727/B06], the “Met Kinase % Inhibition” value in the test with MET is listed as 91.0%. In addition, the “Biochem EGFR %Inhibition” value at EGFR amounted to 40.7%.

For the molecule `COc1ccc(C=C2C(=O)Nc3ccc(S(=O)(=O)Nc4ccc(C(F)(F)F)cc4)cc32)cc1` [10726/E11], in the test on MET, the “Met Kinase % Inhibition” value was 34.5%. For the same molecule, the “Biochem EGFR %Inhibition” value at EGFR was -14.1%.

Consider `O=C1Nc2ccc(S(=O)(=O)N3CCOCC3)cc2C1=Cc1cc(O)c2c(c1O)CCCC2` [10726/F07], for which the “Met Kinase % Inhibition” value in the test on MET was 96.1%. Besides, the “Biochem EGFR %Inhibition” value on EGFR was determined as 76.2%.

Take `CCc1cc(CC)c(C=C2C(=O)Nc3ccc(I)cc32)[nH]1` [10727/B03]: in the test on MET, the “Met Kinase % Inhibition” value came out at 84.5%. Further, the “Biochem EGFR %Inhibition” value at EGFR is -2.8%.

Consider `Cc1cn(C)cc1C=C1C(=O)Nc2ccc(CCCl)cc21` [10726/G06], for which, in the test with MET, the “Met Kinase % Inhibition” value is 19.9%. Besides, the “Biochem EGFR %Inhibition” value at EGFR is given as -37.5%.

Consider `O=C1Nc2ccc(I)cc2C1=Cc1ccccc1Sc1ccc(Cl)cc1` [10727/B05], for which, in the test with MET, the “Met Kinase % Inhibition” value was 83.3%. In addition, on EGFR, the “Biochem EGFR %Inhibition” value is on record as 39.0%.

`Cc1c(Br)ccc2c1C(=Cc1ccc(C#N)cc1)C(=O)N2` [10727/C09]: the “Met Kinase % Inhibition” value with MET came out at 37.9%. For the same molecule, on EGFR, the “Biochem EGFR %Inhibition” value came out at 16.6%.

With `Cc1cn(C)cc1C=C1C(=O)Nc2ccc(S(=O)(=O)N3CCOCC3)cc21` [10726/F06], the “Met Kinase % Inhibition” value in the test on MET came to 16.2%. Further, the “Biochem EGFR %Inhibition” value at EGFR is -24.1%.

Take `CCOC(=O)c1[nH]c(C=C2C(=O)Nc3ccc(S(=O)(=O)NC)cc32)c(C(=O)OC)c1C` [10726/D03]: in the test with MET, the “Met Kinase % Inhibition” value is given as 52.1%. For the same molecule, the “Biochem EGFR %Inhibition” value on EGFR is recorded as -5.4%.

For `O=C1Nc2ccc(I)cc2C1=Cc1cc(O)ccc1O` [10727/B10], the “Met Kinase % Inhibition” value in the test with MET was 99.2%. Besides, at EGFR, the “Biochem EGFR %Inhibition” value was 94.0%.

Regarding `CCOC(=O)c1[nH]c(C=C2C(=O)Nc3ccc(S(=O)(=O)N4CCOCC4)cc32)c(C(=O)OC)c1C` [10726/F03], the “Met Kinase % Inhibition” value in the test with MET was determined as 54.1%. Also, the “Biochem EGFR %Inhibition” value on EGFR was -17.4%.

Consider `O=C1Nc2ccc(CCCl)cc2C1=Cc1ccc(Br)o1` [10726/G05], for which the “Met Kinase % Inhibition” value with MET is on record as 81.1%. Besides, the “Biochem EGFR %Inhibition” value at EGFR worked out at 5.1%.

For `O=C1Nc2c(Br)cc(Br)cc2C1=Cc1ccccc1Sc1ccc(Cl)cc1` [10727/A05], the “Met Kinase % Inhibition” value in the test with MET amounted to 29.0%. Besides, the “Biochem EGFR %Inhibition” value on EGFR is reported as -3.0%.

In the case of `COc1ccc(C=C2C(=O)Nc3ccc(Br)c(C)c32)cc1` [10726/C11], the “Met Kinase % Inhibition” value in the test with MET stood at 34.7%. Moreover, the “Biochem EGFR %Inhibition” value on EGFR stood at 4.8%.

Regarding `CCc1ccc(C=C2C(=O)Nc3ccc(S(=O)(=O)NC)cc32)s1` [10726/D10], the “Met Kinase % Inhibition” value with MET came to 35.3%. Moreover, the “Biochem EGFR %Inhibition” value at EGFR is -6.5%.

Regarding `O=C1Nc2ccc(CCCl)cc2C1=Cc1cc(O)c2c(c1O)CCCC2` [10726/G07], the “Met Kinase % Inhibition” value with MET came to 94.8%. Moreover, the “Biochem EGFR %Inhibition” value on EGFR worked out at 54.4%.

`O=C1Nc2ccc(F)cc2C1=C1C(=O)Nc2ccc(S(=O)(=O)Nc3ccc(C(F)(F)F)cc3)cc21` [10726/E08]: the “Met Kinase % Inhibition” value with MET came out at 58.9%. Further, the “Biochem EGFR %Inhibition” value on EGFR is -8.5%.

With `Cn1cccc1C=C1C(=O)Nc2ccc(CCCl)cc21` [10717/G04], the “Met Kinase % Inhibition” value with MET was 10.9%. For the same molecule, on EGFR, the “Biochem EGFR %Inhibition” value is listed as 6.0%.

Turning to `O=C1Nc2ccc(F)cc2C1=C1C(=O)Nc2ccc(CCCl)cc21` [10726/G08], in the test on MET, the “Met Kinase % Inhibition” value was 39.1%. Also, at EGFR, the “Biochem EGFR %Inhibition” value is reported as -2.7%.

Regarding `CNS(=O)(=O)c1ccc2c(c1)C(=Cc1cn(C)cc1C)C(=O)N2` [10726/D06], the “Met Kinase % Inhibition” value with MET is given as 42.8%. Moreover, the “Biochem EGFR %Inhibition” value at EGFR was -24.4%.

Take `Cc1c(Br)ccc2c1C(=Cc1cc(Cl)cc(Br)c1O)C(=O)N2` [10727/C04]: the “Met Kinase % Inhibition” value in the test on MET is listed as 81.7%. Also, the “Biochem EGFR %Inhibition” value at EGFR worked out at 27.6%.

As for `CNS(=O)(=O)c1ccc2c(c1)C(=Cc1ccc(OC)cc1)C(=O)N2` [10726/D11], the “Met Kinase % Inhibition” value in the test with MET is reported as 9.6%. Further, at EGFR, the “Biochem EGFR %Inhibition” value is listed as -6.3%.

With `O=C1Nc2ccc(S(=O)(=O)Nc3ccc(C(F)(F)F)cc3)cc2C1=Cc1cc(O)c2c(c1O)CCCC2` [10726/E07], the “Met Kinase % Inhibition” value in the test on MET stood at 84.0%. Further, the “Biochem EGFR %Inhibition” value on EGFR turned out to be 20.5%.

For the molecule `COc1ccc(C=C2C(=O)Nc3ccc(S(=O)(=O)N4CCOCC4)cc32)cc1` [10726/F11], in the test with MET, the “Met Kinase % Inhibition” value is given as 57.6%. In addition, the “Biochem EGFR %Inhibition” value on EGFR is -16.8%.
